# According to patent US6680325B2, “Agents for combating plant pests” (Bayer Aktiengesellschaft, priority 1998, dated 2004):
# Read-outs that look alike come from different tables or passages of the source.
# Legend:
# Spodoptera frugiperda [1] = test: Critical concentration test/soil insects, Spodoptera frugiperda (maize); type: in vivo
# From the text: (§1) The active compound preparation is mixed intimately with soil. Here, the concentration of the active compound in the preparation is almost irrelevant; only the amount by weight of active compound or active compound mixture per volume unit of soil, which is stated in ppm (mg/l), matters.
# [2] = test system: caterpillars of the diamondback moth (Plutella xylostella); test: Plutella test (cabbage leaf dip); type: in vivo
# Botrytis cinerea = test: Botrytis test (bean)/protective; settings: 2 days after inoculation
# From the text: If the actual fungicidal activity exceeds the calculated value, then the activity of the combination is superadditive, i.e. a synergistic effect exists. In this case, the efficacy which was actually observed must be greater than the value for the expected efficacy (E) calculated from the formula set out above.
# After the spray coating has dried on, 2 small pieces of agar colonized by Botrytis cinerea are placed onto each leaf. The inoculated plants are placed in a dark chamber at approximately 20° C. and 100% relative atmospheric humidity.
# 2 days after the inoculation, the size of the disease spots on the leaves is evaluated.
# [3] = test system: Phaedon cochleariae larvae; test: Critical concentration test/root-systemic action, Phaedon cochleariae (cabbage); type: in vivo
# Experimental: as §1
# Soil is filled into 250 ml pots and these are planted with cabbage (Brassica oleracea). The active compound or the active compound combination can thus be taken up by the plant roots from the soil and transported into the leaves.
# [4] = test system: Diabrotica balteata - larvae in the soil; test: Critical concentration test/soil insects, Diabrotica balteata larvae in the soil (maize); type: in vivo
# Experimental: (§2) Here, the concentration of the active compound in the preparation is almost irrelevant; only the amount by weight of active compound per volume unit of soil, which is stated in ppm (mg/l), matters. The soil is filled into 0.51 pots and these are allowed to stand at 20° C.
# Immediately after preparation, 5 maize corns are placed into each pot. After 3 days, the test insects are placed into the treated soil. After a further 7 days, the efficacy is determined. The efficacy is calculated from the number of maize plants which have emerged.
# Pyrenophora teres = Pyrenophora teres test (barley)/protective; type: in vivo; settings: 7 days after inoculation, single value given
# Experimental: After the spray coating has dried on, the plants are sprayed with a conidia suspension of Pyrenophora teres.
# The plants are then placed in a greenhouse at a temperature of approximately 20° C. and a relative atmospheric humidity of approximately 80%.
# Evaluation is carried out 7 days after the inoculation.
# [5] = test system: Heliothis virescens caterpillars; test: Heliothis virescens test (soya bean shoot dip); type: in vivo
# [6] = test system: larvae of the mustard beetle (Phaedon cochleariae); test: Phaedon larvae test (cabbage leaf dip)
# [7] = test system: Erysiphe graminis f.sp. hordei; test: Erysiphe test (barley)/protective; type: in vivo; settings: 62.5 g/ha, 7 days after inoculation; single value given
# Puccinia recondita = test: Puccinia test (wheat)/protective; type: in vivo; settings: 18.75 g/ha, 10 days after inoculation
# Experimental: After the spray coating has dried on, the plants are sprayed with a conidia suspension of Puccinia recondita.
# The plants are then placed in a greenhouse at a temperature of approximately 20° C. and a relative atmospheric humidity of 80% to promote the development of rust pustules.
# (§3) Evaluation is carried out 10 days after the inoculation.
# Phytophthora infestans = type: in vivo; settings: 3 days after inoculation
# Fusarium culmorum = Fusarium culmorum test (wheat)/seed treatment; type: in vivo; settings: 75 g/ha, dry seed dressing, approximately 3 weeks after sowing
# Experimental: Fusarium Culmorum Test (Wheat)/Seed Treatment
# The active compounds are applied as a dry dressing. They are prepared by extending the active compound in question with ground minerals to give a finely pulverulent mixture which ensures even distribution on the surface of the seeds.
# For the dressing, the infected seeds are shaken with the dressing in a closed glass bottle for 3 minutes.
# 2×100 seeds of the wheat are sown at a depth of 1 cm into standard soil, and the wheat is cultivated in a greenhouse at a temperature of approximately 18° C. and at a relative atmospheric humidity of approximately 95% in seed containers receiving 15 hours of light per day.
# The evaluation of the plants for symptoms is carried out approximately 3 weeks after sowding.
# Sphaerotheca fuliginea = test: Sphaerotheca test (cucumber)/protective; type: in vivo; settings: 10 days after inoculation
# Experimental: After the spray coating has dried on, the plants are inoculated with an aqueous spore suspension of Sphaerotheca fuliginea.
# as §3
# Spodoptera frugiperda [8] = test: Critical concentration test/root systemic action, Spodoptera frugiperda (maize); type: in vivo
# Experimental: as §2, with “The preparation of active compound is mixed intimately with soil. Here,” for “Here,”, “virtually immaterial;” for “almost irrelevant;”, “250 ml” for “0.51”
# Immediately after preparation, 3 maize corns are placed into each pot. 14 days after the preparation, the test insects are placed into an insect bracket and attached to the plant. 4 days after the infection, the efficacy of the active compound is determined in % by counting the dead and live test insects. The efficacy is 100% if all test insects have been killed; it is 0% if the same number of test insects is alive as in the untreated control.
# [9] = test system: green rice leaf hopper (Nephotettix cincticeps); test: Nephotettix test (rice seedling dip); type: in vivo
# [10] = Spodoptera frugiperda, 120 h, 20.00 ppm in soil, read-out: Kill in %
# [11] = Spodoptera frugiperda, soil, 120 h, read-out: Kill in %
compound,measurement,setting,value
CC(C)(C)C(O)(CCc1ccc(Cl)cc1)Cn1cncn1 (centres unmarked) [tebuconazole],pest or weed control at 20 ppm,Spodoptera frugiperda [1]; [10],0%
same,Kill in %,[2]; concentration 0.02 %,0%
same,Efficacy in % found,Botrytis cinerea; 100 g/ha,80%
same,Kill in %,[3]; 20.00 ppm in soil,0%
CO/N=C(\C1=NOCCO1)c1ccccc1Oc1ncnc(Oc2ccccc2Cl)c1F [compound according to (48)],Kill in %,[4]; 20.00 ppm in soil,20.00 ppm = 0%
CO/C=C(/C(=O)OC)c1ccccc1Oc1cc(Oc2ccccc2C#N)ncn1 [azoxystrobin],Efficacy in % calculated/found,Pyrenophora teres; 18.75 g/ha,0%
same,pest or weed control at 20 ppm,Spodoptera frugiperda [1]; [10],0%
same,Kill in %,[3]; 20.00 ppm in soil,0%
same,Kill in %,[5]; concentration 0.0008 %,0%
CO/N=C(/C(=O)OC)c1ccccc1COc1ccccc1C [kresoxim-methyl],Kill in %,[6]; concentration 0.1 %,0%
same,Efficacy in % calculated/found,[7],0%
CC(C)(C)C(O)C(Oc1ccc(Cl)cc1)n1cncn1 (centres unmarked) [triadimenol],pest or weed control at 20 ppm,Spodoptera frugiperda [1]; [10],0%
same,Efficacy in %,Puccinia recondita,13%
same,Kill in %,[3]; 20.00 ppm in soil,0%
same,Efficacy in % found,Phytophthora infestans; 500 g/ha,0%
same,Efficacy in %,Fusarium culmorum,13.5%
N#Cc1c[nH]cc1-c1cccc(Cl)c1Cl [fenpiclonil],pest or weed control at 20 ppm,Spodoptera frugiperda [1]; [10],0%
same,Efficacy in % found,Sphaerotheca fuliginea; 500 g/ha,50%
same,Kill in %,[3]; 20.00 ppm in soil,0%
CC(C)(C)C(O)C(Oc1ccc(-c2ccccc2)cc1)n1cncn1 (centres unmarked) [bitertanol],pest or weed control at 20 ppm,Spodoptera frugiperda [1]; [10],0%
same,Kill in %,[3]; 20.00 ppm in soil,0%
OC(Cc1ccccc1Cl)(Cn1nc[nH]c1=S)C1(Cl)CC1 (centres unmarked) [compound of group (49)],Kill in %,Spodoptera frugiperda [8]; 5.00 ppm in soil,5.00 ppm = 0%
CNC(=N[N+](=O)[O-])NCc1cnc(Cl)s1 [formula (I)],Kill in %,[9]; concentration 0.00000128 %,0%
same,Efficacy in % calculated/found,Pyrenophora teres; 18.75 g/ha,20%
same,Efficacy in % calculated/found,Pyrenophora teres; 62.5 g/ha,0%
same,Kill in %,Spodoptera frugiperda [8]; 0.15 ppm in soil,0.15 ppm = 50%
same,Kill in %,[6]; concentration 0.000032 %,0%
same,Kill in %,[6]; concentration 0.00016 %,20%
same,pest or weed control at 0.06 ppm,Spodoptera frugiperda [1]; [11],98%
same,pest or weed control at 0.3 ppm,Spodoptera frugiperda [1]; [11],50%
same,pest or weed control at 1.25 ppm,Spodoptera frugiperda [1]; [11],100%
same,Kill in %,[4]; 0.15 ppm in soil,0.15 ppm = 0%
same,Kill in %,[4]; 0.30 ppm in soil,0.30 ppm = 50%
same,Efficacy in %,Puccinia recondita,0%
same,Efficacy in % found,Sphaerotheca fuliginea; 10 g/ha,0%
same,Efficacy in % found,Sphaerotheca fuliginea; 500 g/ha,0%
same,Kill in %,[2]; concentration 0.0008 %,0%
same,Efficacy in % found,Botrytis cinerea; 10 g/ha,0%
same,Efficacy in % found,Botrytis cinerea; 100 g/ha,4%
same,Kill in %,[3]; 0.30 ppm in soil,50%
same,Kill in %,[3]; 0.60 ppm in soil,80%
same,Kill in %,[3]; 1.25 ppm in soil,100%
same,Efficacy in % calculated/found,[7],0%
same,Kill in %,[5]; concentration 0.00016 %,50%
same,Efficacy in %,Fusarium culmorum,0%
propiconazole,Kill in %,Spodoptera frugiperda [1]; 20.00 ppm in soil,0%
same,Kill in %,[3]; 20.00 ppm in soil,0%
same,Efficacy in % found,Phytophthora infestans; 500 g/ha,5%
COCC(=O)N(c1c(C)cccc1C)C(C)C(=O)OC (centres unmarked) [metalaxyl],Kill in %,[9]; concentration 0.1 %,0%
same,pest or weed control at 20 ppm,Spodoptera frugiperda [1]; [10],0%
same,Kill in %,[2]; concentration 0.1 %,0%
same,Kill in %,[3]; 20.00 ppm in soil,0%
same,Efficacy in % found,Phytophthora infestans; 50 g/ha,42%
CC(C1CC1)C(O)(Cn1cncn1)c1ccc(Cl)cc1 (centres unmarked) [cyproconazole],pest or weed control at 20 ppm,Spodoptera frugiperda [1]; [10],0%
same,Efficacy in % found,Sphaerotheca fuliginea; 10 g/ha,70%
[O-][n+]1nc(-n2ccnc2)nc2ccc(Cl)cc21 [triazoxides],Efficacy in % calculated/found,Pyrenophora teres; 62.5 g/ha,40%
Cc1noc(C)c1S(=O)(=O)n1c(Cl)nc2cc3c(cc21)OC(F)(F)O3 [compound according to (50)],Kill in %,[4]; 20.00 ppm in soil,20.00 ppm = 70%
N#Cc1c[nH]cc1-c1cccc2c1OC(F)(F)O2 [fludioxonil],Efficacy in % found,Botrytis cinerea; 10 g/ha,40%
same,Efficacy in %,Fusarium culmorum,0%
